Results as given in patent US8609656B2, “Heteroarylphenylurea derivative” (Chugai Seiyaku Kabushiki Kaisha, priority 2004, dated 2013).
In brackets after ≈: the same amount, converted by molar mass. Structures can show the parent of a compound that is named as a salt.

Columns and labels:
[1] = tested on: human colorectal cancer cell strain HCT 116; test: Cell growth inhibition test, HCT 116; assay type: cell-based; conditions: 72 hours, read-out: HCT116, 50% Growth Inhibition Concentration (IC50 value)
Method: (§1) Cell Growth Inhibition Test
(§2) With respect to the compounds relating to the present invention and the known compound (BAY 43-9006), cell growth inhibition activity was measured.
(§3) A sample compound was in-series diluted with dimethyl sulfoxide, and then was 1/50 diluted with a Ca^2+- and Mg^2+-free phosphate-bufferized physiological saline and its 20 μL was poured to a 96-well plate. […] Each of these cell suspensions was dividedly poured to the sample added plate in 180 μL/well and cultured in a 5% carbon dioxide incubator at 37° C. After 72 hours, 20 μL of WST-(HCT 116, a product of Dojin) or WST-1 (HUVEC, a product of Roche diagnostics) was added thereto to each well and the absorbance at 450 nm (reference wavelength: 650 nm) was measured. From the growth inhibition ratio of addition of the sample compound to no-addition of the sample compound as a reference, the 50% growth inhibition IC50) of the sample compound was calculated.
(§4) With respect to the group of representative compounds of the present invention, the IC50 values of HCT 116 and HUVEC (VEGF nondependent growth and VEGF dependent growth) are shown in Tables 5-1 to 5-3.

[2] = tested on: VEGF non-dependent human umbilical vein endothelial cells (HUVEC); test: Cell growth inhibition test, VEGF non-dependent HUVEC; assay type: cell-based; conditions: 72 hours, WST-1, read-out: HUVEC (VEGF Nondependence), 50% Growth Inhibition Concentration (IC50 value)
Method: as §1, §2, §3, §4

[3] = tested on: VEGF dependent HUVEC; test: Cell growth inhibition test, VEGF dependent HUVEC; assay type: cell-based; conditions: Homo sapiens, 20 ng/mL of VEGF, 72 hours, WST-1, read-out: HUVEC (VEGF Dependence), 50% Growth Inhibition Concentration (IC50 value)
Method: as §1, §2, §3, §4

[4] = molecular target: T1, recombinant Raf-1 protein (activated type GST-Raf-1) (Homo sapiens, UniProt P04049); test: RAF-1 enzyme inhibition test (33P incorporation into MEK 1 protein); assay type: biochemical; conditions: 10 μM ATP, GST-MEK1 substrate, 30° C., 45 minutes; read-out: Raf-1 Enzyme Inhibition, 50% Enzyme Inhibition Concentration (IC50 value)
T1 construct: fused on or other part: GST tag fused to Raf-1
T1 sequence (P04049 349-648 limits assumed): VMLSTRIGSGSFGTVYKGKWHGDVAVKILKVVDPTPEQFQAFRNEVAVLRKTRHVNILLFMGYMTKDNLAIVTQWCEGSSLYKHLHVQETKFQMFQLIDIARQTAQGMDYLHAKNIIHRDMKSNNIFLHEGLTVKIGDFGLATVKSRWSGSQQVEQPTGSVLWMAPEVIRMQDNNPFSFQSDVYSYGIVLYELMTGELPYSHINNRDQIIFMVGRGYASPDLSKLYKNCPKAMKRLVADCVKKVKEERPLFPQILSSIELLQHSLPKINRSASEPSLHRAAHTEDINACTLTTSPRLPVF
Method: RAF-1 Enzyme Inhibition Test
With respect to the compounds relating to the present invention and the known compound (BAY 43-9006):
[drawing 660] the Raf-1 protein inhibition activity was measured. The enzymatic reaction was measured by incorporation of ^33P-phosphoric acid into MEK 1 protein by a recombinant Raf-1 protein. The activity was measured by preparing 50 μL of a reaction solution containing a dimethyl sulfoxide solution of the compound relating to the present invention or the compound BAY 43-9006 at a varied concentration [as the final concentration, the reaction solution containing […] of TRIS hydrochloric buffer (pH 7.5), 1 mM of dithiothreitol, 100 mM of sodium chloride, 10 mM of potassium fluoride, 1 mM of sodium vanadate, 10 mM of magnesium chloride, 10 μM of adenosine triphosphate (ATP, containing ^33P-ATP of 12580Bq), 2 μg of GST-MEK1 and 25 ng of an activated type GST-Raf-1]; keeping the reaction solution at 30° C. for 45 minutes; adding 100% trichloroacetic acid to the reaction solution in an amount twice the volume of the reaction solution to precipitate a proteinous component; recovering the precipitate on a glass filter; and measuring the radioactivity of the recovered product. The 50% inhibition concentration (IC50) was obtained from the inhibition ratio to a sample-free reference.
The compound BAYT 43-9006 was prepared on the basis of the description (Example 41) of WO 00/42012.

[5] = Solubility to fasted state simulated intestinal fluid; assay type: physicochemical; conditions: fassif, kinetic from dmso stock, fasted state simulated intestinal fluid (pH 6.5), 37° C.
Method: Method of Measuring Solubility to Fasted State Simulated Intestinal Fluid
To a 96-well plate, 2 μL of a dimethyl sulfoxide solution of the compound relating to the present invention or that of the compound BAY 43-9006 was poured at one time, respectively, and fasted state simulated intestinal fluid (pH 6.5) was added 200 μL by 200 μL, and the plate was shaken at 37° C. for 20 hours. The solution was filtered with a membrane filter and 101 μL of the filtrate was transferred to an UV plate, and 100 μL of a mixed solution of ethanol:water=2:1 was added thereto. On the other hand, as a standard solution, 2 μL of a dimethyl sulfoxide solution was added to a solution containing 4 μL of dimethyl sulfoxide, 400 μL of ethanol and 200 μL of water and the obtained solution was transferred 101 μL by 101 μL to the UV plate and to this UV plate, the simulated fasting bile-containing intestinal juice (pH 6.5) was added 100 μL by 100 μL. The solubility was calculated by the following equation. Solubility=(absorbance of sample solution-blank)/(absorbance of standard solution-blank)×[…]
165 μL is a concentration of the standard solution.
Composition of Fasted State Simulated Intestinal Fluid
Fasted state simulated intestinal fluid was prepared in accordance with E. Galia et al., Pharm. Res., 698, 1998.
To about 90 mL of water, 161 mg of taurocholic acid, 59 mg of L-α-phosphatidylcholine, 0.39 g of potassium dihydrogenphosphate and 0.77 g of potassium chloride were added and the pH of the mixture solution […] and the mixture solution was filtered with a membrane filter.

Row | SMILES | IC50 [4] | also measured
1 | O=C(Nc1ccc(-n2cnc3cnccc32)cc1)Nc1ccc(Cl)c(C(F)(F)F)c1 [Table 1, Compound 1, 1-(4-chloro-3-(trifluoromethyl)phenyl)-3-(4-imidazo[4,5-c]pyridin-1-ylphenyl)urea] | – | IC50 [1]: 1200 nM; IC50 [2]: 2100 nM; IC50 [3]: 92 nM
2 | CNc1ncnc2c1ncn2-c1ccc(NC(=O)Nc2cc(C(=O)NCC(O)CO)cc(C(F)(F)F)c2)cc1 (stereo not shown) [Table 2, Compound 57] | 130 nM | –
3 | CNc1ncnc2c1ncn2-c1ccc(NC(=O)Nc2cc(CCN(C)C)cc(C(F)(F)F)c2)cc1 [Table 2, Compound 71, 1-[3-(2-Dimethylamino-ethyl)-5-(trifluoromethyl)phenyl]-3-[4-(6-(methylamino)purin-9-yl)phenyl]urea] | 190 nM | –
4 | CNc1ncnc2c1ncn2-c1ccc(NC(=O)Nc2ccc(CCCN3CCCCC3)c(C(F)(F)F)c2)cc1 [Table 2, Compound 78, 1-[4-(6-(Methylamino)purin-9-yl)phenyl]-3-[4-[3-piperidin-1-yl-propyl]-3-(trifluoromethyl)phenyl]-urea] | 140 nM | –
5 | CNc1ncnc2c1ncn2-c1ccc(NC(=O)Nc2cc(OC3CCN(C)CC3)cc(C(F)(F)F)c2)cc1 [Table 2, Compound 91, 1-[4-(6-(Methylamino)purin-9-yl)phenyl]-3-[3-(1-methyl-piperidin-4-yloxy)-5-(trifluoromethyl)phenyl]-urea] | 270 nM | –
6 | CN(C)CCNC(=O)c1cc(NC(=O)Nc2ccc(-n3cnc4ncnc(N)c43)cc2)cc(C(F)(F)F)c1 [Table 3, Compound 9, 3-{3-[4-(6-Aminopurin-7-yl)phenyl]ureido}-N-(2-(dimethylamino)ethyl)-5-(trifluoromethyl)benzamide] | 85 nM | –
7 | CNc1ncnc2c1ncn2-c1ccc(NC(=O)Nc2cc(CCN3CCCCC3)cc(C(F)(F)F)c2)cc1 [Table 3, Compound 30, 1-[4-(6-(Methylamino)purin-9-yl)phenyl]-3-[3-(2-piperidin-1-yl-ethyl)-5-(trifluoromethyl)phenyl]urea] | 170 nM | –
8 | CNc1ncnc2c1ncn2-c1ccc(NC(=O)Nc2cc(CCN3CCCC3)cc(C(F)(F)F)c2)cc1 [Table 3, Compound 31, 1-[4-(6-(Methylamino)purin-9-yl)phenyl]-3-[3-(2-pyrrolidin-1-yl-ethyl)-5-(trifluoromethyl)phenyl]urea] | 130 nM | –
9 | CNc1ncnc2c1ncn2-c1ccc(NC(=O)Nc2ccc(CCN(C)CCN(C)C)c(C(F)(F)F)c2)cc1 [Table 3, Compound 36, 1-(4-{2-[(2-(Dimethylamino)ethyl)-methylamino]-ethyl}-3-(trifluoromethyl)phenyl)-3-[4-(6-(methylamino)-purin-9-yl)phenyl]urea] | – | solubility at 20 h [5]: 107 µg/mL (≈ 193 µM)
10 | CNc1ncnc2c1ncn2-c1ccc(NC(=O)Nc2ccc(CCN3CCN(C(C)C)CC3)c(C(F)(F)F)c2)cc1 [Table 3, Compound 37, 1-{4-[2-(4-Isopropyl-piperazin-1-yl)ethyl]-3-(trifluoromethyl)phenyl}-3-[4-(6-(methylamino)purin-9-yl)phenyl]urea] | – | solubility at 20 h [5]: 193 µg/mL (≈ 332 µM)
11 | CNc1ncnc2c1ncn2-c1ccc(NC(=O)Nc2ccc(CCN(C)CCCN(C)C)c(C(F)(F)F)c2)cc1 [Table 3, Compound 38, 1-(4-{2-[(3-(Dimethylamino)propyl)methylamino]ethyl}-3-(trifluoromethyl)phenyl)-3-[4-(6-(methylamino)purin-9-yl)phenyl]urea] | – | solubility at 20 h [5]: 147 µg/mL (≈ 258 µM)

Further molecules by falling IC50 [4], results first:

Row | IC50 [4] | SMILES | also measured
12 | 84 nM | CNc1ncnc2c1ncn2-c1ccc(NC(=O)Nc2cc(CCN3CCOCC3)cc(C(F)(F)F)c2)cc1 [Table 2, Compound 73, 1-[4-(6-(Methylamino)purin-9-yl)phenyl]-3-[3-(2-morpholin-4-yl-ethyl)-5-(trifluoromethyl)phenyl]urea] | –
13 | 75 nM | CNc1ncnc2c1ncn2-c1ccc(NC(=O)Nc2cc(C(=O)NCCN(C)C)cc(C(F)(F)F)c2)cc1 [Table 2, Compound 40, N-(2-Dimethylaminoethyl)-3-{3-[4-(6-(methylamino)purin-9-yl)phenyl]ureido}-5-(trifluoromethyl)benzamide] | –
14 | 73 nM | CNc1ncnc2c1ncn2-c1ccc(NC(=O)Nc2cc(CCCN3CCCC3)cc(C(F)(F)F)c2)cc1 [Table 3, Compound 45, 1-[4-(6-(Methylamino)purin-9-yl)phenyl]-3-[3-(3-pyrrolidin-1-yl-propyl)-5-(trifluoromethyl)phenyl]-urea] | solubility at 20 h [5]: 79 µg/mL (≈ 147 µM)
15 | 69 nM | C=Cc1nc2c(N)ncnc2n1-c1ccc(NC(=O)Nc2cc(CN3CCN(C)CC3)cc(C(F)(F)F)c2)cc1 [Table 2, Compound 28] | solubility at 20 h [5]: 238 µg/mL (≈ 431 µM)
16 | 67 nM | O=C(Nc1ccc(Cl)c(C(F)(F)F)c1)N(O)c1ccc(-n2cnc3ncncc32)cc1 [Table 1, Compound 46, 1-(4-Chloro-3-(trifluoromethyl)phenyl)-3-hydroxy-3-(4-purin-7-ylphenyl)urea] | –
17 | 67 nM | CN1CCN(Cc2cc(NC(=O)Nc3ccc(-n4c(I)nc5c(N)ncnc54)cc3)cc(C(F)(F)F)c2)CC1 [Table 2, Compound 27] | –
18 | 53 nM | CN1CCN(Cc2cc(NC(=O)Nc3ccc(-n4cnc5ncnc(N)c54)cc3)cc(C(F)(F)F)c2)CC1 [Table 3, Compound 4] | solubility at 20 h [5]: 219 µg/mL (≈ 417 µM)
19 | 51 nM | Nc1ncnc2ncn(-c3ccc(NC(=O)Nc4ccc(Cl)c(C(F)(F)F)c4)cc3)c12 [Table 3, Compound 1, 1-[4-(6-(Aminopurin-7-yl)phenyl)-3-(4-chloro-3-(trifluoromethyl)phenyl)urea hydrochloride] | –
20 | 47 nM | CC(=O)Oc1cccc2c1ccn2-c1ccc(NC(=O)Nc2ccc(Cl)c(C(F)(F)F)c2)cc1 [Table 1, Compound 18, Acetic acid 1-{4-[3-(4-chloro-3-(trifluoromethyl)phenyl)ureido]phenyl}-1H-indol-4-yl ester] | –
21 | 33 nM | Nc1ncnc2c1ncn2-c1ccc(NC(=O)Nc2ccc(Cl)c(C(F)(F)F)c2)cc1 [Table 1, Compound 30, 1-[4-(6-Aminopurin-9-yl)phenyl]-3-(4-chloro-3-(trifluoromethyl)phenyl)urea hydrochloride] | –
22 | 29 nM | C=Cc1nc2c(N)ncnc2n1-c1ccc(NC(=O)Nc2ccc(Cl)c(C(F)(F)F)c2)cc1 [Table 2, Compound 8, 1-[4-(6-Amino-8-vinylpurin-9-yl)phenyl]-3-(4-chloro-3-(tri-fluoromethyl)phenyl)urea] | –
23 | 15 nM | C=Cc1nc2c(NC(=O)NCCC)ncnc2n1-c1ccc(NC(=O)Nc2ccc(Cl)c(C(F)(F)F)c2)cc1 [Table 2, Compound 13, 1-(9-{4-[3-(4-Chloro-3-(tri-fluoromethyl)phenyl)ureido]-phenyl}-8-vinyl-9H-purin-6-yl)-3-propylurea] | –
